PMC10726352, “Discovery of KB-0742, a Potent, Selective, Orally Bioavailable Small Molecule Inhibitor of CDK9 for MYC-Dependent Cancers” (Journal of Medicinal Chemistry, 2023)
Where “and” joins values, the source holds several entries; their conditions need not be identical. Identical values can stand only once.

How the values were obtained:
[1] = LogD; type: physicochemical; settings: pH = 7.4
[2] = Pharmacokinetics; type: in vivo; settings: mouse
[3] = Pharmacokinetics; type: in vivo; settings: rat
[4] = Pharmacokinetics; type: in vivo; settings: dog
[5] = Projection of human PK parameters
[6] = Plasma concentration in CTG-1017 tumor-bearing mice; type: in vivo; settings: Athymic Nude-Foxn1nu, mouse, po, 60 mg/kg p.o.
[7] = in vitro; settings: mouse, hepatocytes
[8] = in vitro; settings: rat, hepatocytes
[9] = in vitro; settings: dog, hepatocytes
[10] = in vitro; settings: human, hepatocytes
[11] = in vitro; settings: mouse, rat, dog, human, microsomes and hepatocytes
[12] = Microsome stability; settings: mouse
[13] = Microsome stability; settings: rat
[14] = Microsome stability; settings: dog
[15] = Microsome stability; settings: human
[16] = Plasma protein binding; settings: mouse
[17] = Plasma protein binding; settings: rat
[18] = Plasma protein binding; settings: dog
[19] = Plasma protein binding; settings: human
[20] = system: BT-20; assay: OncoPanel Multiplexed Cytotoxicity Assay; type: cell-based
[21] = system: BT-549; assay: OncoPanel Multiplexed Cytotoxicity Assay; type: cell-based
[22] = system: MDA-MB-231; assay: OncoPanel Multiplexed Cytotoxicity Assay; type: cell-based
[23] = system: MT-3; assay: OncoPanel Multiplexed Cytotoxicity Assay; type: cell-based
[24] = system: Hs 578T; assay: OncoPanel Multiplexed Cytotoxicity Assay; type: cell-based

## CCC(CC)c1cc(N[C@H]2CC[C@H](N)C2)n2nccc2n1 [Compound 28, [(1S,3S)-3-[[5-(1-Ethylpropyl)pyrazolo[1,5-a]pyrimidin-4-ium-7-yl]amino]cyclopentyl]ammonium Dichloride]
[1]
  logD: 0.9
[2]; i.v. 1.0 mg/kg
  Vd,ss (i.v.): 3.9 L/kg
[2]; p.o. 20 mg/kg
  AUC (p.o.): 1700 ng·h/mL
  Cmax (p.o.): 501 ng/mL
[3]; i.v. 2.0 mg/kg
  T1/2 (i.v.): 2.4 h
[3]; p.o. 10 mg/kg
  AUC (p.o.): 3591 ng·h/mL
  Cmax (p.o.): 411 ng/mL
[4]; i.v. 0.50 mg/kg
  T1/2 (i.v.): 4.7 h
  Vd,ss (i.v.): 4.5 L/kg
[4]; p.o. […]
  F: >100%
[4]; plasma, iv, 0.5 mg/kg, i.v. 0.50 mg/kg
  CLint scaled: 13.4 mL/min/kg
[5]; 70 kg body weight, IVIVE and allometry
  mean predicted human Vd,ss: 6.0 L/kg
[5]; derived from nonclinical species
  predicted human oral bioavailability: 75%
[5]; human, plasma, one-compartment, read-out: estimated human terminal half-life (converted)
  half-life: ~35 h
[6]; 2 h post-dose
  concentration at 2 h: 846 ng/mL and 2.9 µM
[6]; 8 h post-dose
  concentration at 8 h: 73 ng/mL and 250 nM
[7]
  CLint scaled: 44 mL/min/kg
[8]
  CLint scaled: 62 mL/min/kg
  half-life: 1.97 h
[9]
  CLint scaled: 38 mL/min/kg
  half-life: 3.25 h
[10]
  CLint scaled: 1.6 mL/min/kg
  half-life: 39 h
[11]
  half-life: ≥ 2 h
[12]
  Microsome stability: 87.4 % remaining 180 min
[13]
  Microsome stability: 81.3 % remaining 180 min
[14]
  Microsome stability: 68.8 % remaining 180 min
[15]
  Microsome stability: 92.5 % remaining 180 min
[16]
  PPB: 48 % bound
[17]
  PPB: 41 % bound
[18]
  PPB: 72 % bound
[19]
  PPB: 38 % bound

## CN[C@@H]1C[C@H]2O[C@@](C)([C@@H]1OC)n1c3ccccc3c3c4c(c5c6ccccc6n2c5c31)C(=O)NC4 [Staurosporine]
[20]
  Apoptosis Emax: 4.6
  Cell Count Activity Area: 2.58
[20]; BT-20, 72 h
  G1/S cell cycle block: 0.00581 µM
[20]; Homo sapiens, BT-20, 72 h, read-out: Cell Count EC50
  EC50: 31.6 nM
[20]; Homo sapiens, BT-20, 72 h, read-out: Cell count GI50
  GI50: 23.6 nM
[21]
  Apoptosis Emax: 6.9
  Cell Count Activity Area: 4.39
[21]; BT-549, 72 h
  G1/S cell cycle block: 0.00531 µM
[21]; Homo sapiens, BT-549, 72 h, read-out: Cell count GI50
  GI50: 5.56 nM
[22]
  Apoptosis Emax: 5.32
  Cell Count Activity Area: 5.26
[22]; Homo sapiens, MDA-MB-231, 72 h, read-out: Cell count IC50
  IC50: 1.69 nM
[22]; MDA-MB-231, 72 h
  G1/S cell cycle block: 0.0122 µM
[23]
  Apoptosis Emax: 10.32
[23]; MT-3, 72 h
  G1/S cell cycle block: 0.0273 µM
[23]; MT-3, 72 h, read-out: Cell count GI50
  GI50: 9.39 nM
[24]
  Apoptosis Emax: 6.48
  Cell Count Activity Area: 4.99
[24]; Homo sapiens, Hs-578T, 72 h, read-out: Cell count GI50
  GI50: 1.45 nM
[24]; Hs 578T, 72 h
  G1/S cell cycle block: 0.000753 µM
